From patent US8034822B2, “Glucokinase activators” (Takeda San Diego, Inc., priority 2006, dated 2011)

These compounds were tested against T1, glucokinase (GK) (Homo sapiens, UniProt P35557) (assay: enzymatic glucokinase activity assay (ATP consumption, KinaseGlo luminescence)). Conditions: Against GK; Kact = concentration giving 50% of maximal increase in GK activity; 5 μM ATP, 5 mM Glucose, 60 min room temperature; values given as bins; read-out: pKact.
T1 construct: I.D. No. 1 corresponds to residues 12-465 of glucokinase; made in house; host or cells: E. coli DH10b-T1r, pFLAG-CTC plasmid
T1 sequence (P35557 with tags, fused parts or gaps isoform P35557-2): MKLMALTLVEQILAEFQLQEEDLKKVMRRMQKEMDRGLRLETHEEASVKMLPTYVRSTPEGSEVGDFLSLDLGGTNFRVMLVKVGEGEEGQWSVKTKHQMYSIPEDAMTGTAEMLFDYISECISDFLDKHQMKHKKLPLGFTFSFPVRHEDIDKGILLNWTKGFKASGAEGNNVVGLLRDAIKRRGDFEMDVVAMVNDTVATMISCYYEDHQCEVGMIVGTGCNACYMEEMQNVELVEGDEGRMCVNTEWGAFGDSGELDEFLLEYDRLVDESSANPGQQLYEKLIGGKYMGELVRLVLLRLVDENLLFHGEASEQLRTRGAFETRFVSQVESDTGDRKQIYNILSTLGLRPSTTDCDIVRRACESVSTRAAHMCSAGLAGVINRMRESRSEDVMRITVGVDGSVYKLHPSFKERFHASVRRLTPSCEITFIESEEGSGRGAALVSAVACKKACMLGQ
Assay type: biochemical
Source text: The activity of compounds as glucokinase activators may be assayed in vitro, in vivo or in a cell line. Provided below is an enzymatic glucokinase activity assay.
Purified glucokinase may be obtained as follows. DNA encoding residues 12-465 of the full-length sequence of the human enzyme may be amplified by PCR and cloned into the HindIII and EcoRI sites of pFLAG-CTC (Sigma). SEQ. I.D. No. 1 corresponds to residues 12-465 of glucokinase.
The expression of recombinant glucokinase protein may be carried out by transformation and growth of DH10b-T1r E. coli cells incorporating the (pFLAG-CTC) plasmid in LB media. Protein expression can be induced in this system by the addition of IPTG to the culture medium.
Recombinant protein may be isolated from cellular extracts by passage over Sepharose Q Fast Flow resin (Pharmacia). This partially purified GK extract may then be further purified by a second passage over Poros HQ10 (Applied Biosystems). The purity of GK may be determined on denaturing SDS-PAGE gel. Purified GK may then be concentrated to a final concentration of 20.0 mg/ml. After flash freezing in liquid nitrogen, the proteins can be stored at −78° C. in a buffer containing 25 mM TRIS-HCl pH 7.6, 50 mM NaCl, and 0.5 mM TCEP.
The activation properties of compounds for GK may be determined using a black 384-well-plate format under the following reaction conditions: 25 mM Hepes pH 7.2, 25 mM NaCl, 10 mM MgCl2, 0.01% Brij35, 1 mM DTT, 5 μM ATP, 5 mM Glucose 2% DMSO. The amount of ATP consumed may be determined quantitatively by addition of equal volume of luciferase reagent (luciferase+beetle luciferin—KinaseGlo Luminescent Kinase Assay kit from Promega). The luminescence intensity may be measured by using the Analyst HT from LJL Biosystems.
The assay reaction may be initiated as follows: 4 μl of substrate mixture (12.5 μM ATP and 12.5 mM Glucose) was added to each well of the plate, followed by the addition of 2 μl of activator (2 fold serial dilutions for 11 data points for each activator) containing 10% DMSO. 4 μL of 1.25 nM GK solution may be added to initiate the reaction. The reaction mixture may then be incubated at room temperature for 60 min, and quenched and developed by addition of 10 μL of luciferase reagent. Luminescence intensities of the resulting reaction mixtures may be measured after a 10 min incubation at room temperature. The luminescence intensity may be measured by using the Analyst HT from LJL Biosystems.
pKact and % ACTmax values may be calculated by non-linear curve fitting of the compound concentrations and luminescence intensities to a standard inhibition/activation equation.

| SMILES | EC50 [µM] |
| --- | --- |
| CS(=O)(=O)c1ccc2c(=O)n(C(CC3CCCCC3)C(=O)Nc3ncc(Cl)s3)cnc2c1 (stereo not shown) [Compound 56, N-(5-Chloro-thiazol-2-yl)-3-cyclohexyl-2-(7-methanesulfonyl-4-oxo-4H-quinazolin-3-yl)-propionamide] | 1 to 1.58 |
| CS(=O)(=O)c1ccc2c(=O)n(C(Cc3c(F)cccc3F)C(=O)Nc3ccc(Cl)cn3)cnc2c1 (stereo not shown) [Compound 77, N-(5-Chloro-pyridin-2-yl)-3-(2,6-difluoro-phenyl)-2-(7-methanesulfonyl-4-oxo-4H-quinazolin-3-yl)-propionamide] | 1 to 1.58 |
| Cn1c(=O)n(C(CC2CCCCC2)C(=O)Nc2nccs2)c(=O)c2cc(Cl)ccc21 (stereo not shown) [Compound 39, 2-(6-chloro-1-methyl-2,4-dioxo-1,2-dihydroquinazolin-3(4H)-yl)-3-cyclohexyl-N-(thiazol-2-yl)propanamide] | ≥ 2 |
| CC(C)S(=O)(=O)c1csc2c(=O)n(C(CC3CCCCC3)C(=O)Nc3ccc(F)cn3)cnc12 (stereo not shown) [Compound 105, 3-Cyclohexyl-N-(5-fluoropyridin-2-yl)-2-(7-(isopropylsulfonyl)-4-oxothieno[3,2-d]pyrimidin-3(4H)-yl)propanamide] | 1 to 1.58 |
| CS(=O)(=O)c1ccc2c(=O)n(C(CC3CCCCC3)C(=O)Nc3ccc(C(=O)O)cn3)cnc2c1 (stereo not shown) [Compound 65, 6-[3-Cyclohexyl-2-(7-methanesulfonyl-4-oxo-4H-quinazolin-3-yl)-propionylamino]-nicotinic acid] | ≥ 2 |
| O=C(Nc1ncc(Cl)s1)C(CC1CCCCC1)n1c(=O)[nH]c2ccc(F)cc2c1=O (stereo not shown) [Compound 38, N-(5-chlorothiazol-2-yl)-3-cyclohexyl-2-(6-fluoro-2,4-dioxo-1,2-dihydroquinazolin-3(4H)-yl)propanamide] | ≥ 2 |
| CCS(=O)(=O)c1ccc2c(=O)n(C(CC3CCCCC3)C(=O)Nc3ccc(F)cn3)cnc2c1 (stereo not shown) [Compound 71, 3-Cyclohexyl-2-(7-ethanesulfonyl-4-oxo-4H-quinazolin-3-yl)-N-(5-fluoro-pyridin-2-yl)-propionamide] | 1 to 1.58 |
| COC(=O)c1ccc(NC(=O)C(CC2CCCCC2)n2cnc3cc(S(=O)(=O)C4CCCC4)ccc3c2=O)nc1 (stereo not shown) [Compound 83, 6-[3-Cyclohexyl-2-(7-cyclopentanesulfonyl-4-oxo-4H-quinazolin-3-yl)-propionylamino]-nicotinic acid methyl ester] | ≤ 0.398 |
| COC(=O)c1ccc(NC(=O)C(CC2CCCCC2)n2cnc3c(S(=O)(=O)C(C)C)csc3c2=O)nc1 (stereo not shown) [Compound 104, Methyl 6-(3-cyclohexyl-2-(7-(isopropylsulfonyl)-4-oxothieno[3,2-d]pyrimidin-3(4H)-yl)propanamido)nicotinate] | 0.501 to 0.794 |
| CCS(=O)(=O)c1ccc2c(=O)n(C(CC3CCCCC3)C(=O)Nc3ccc(Cl)cn3)cnc2c1 (stereo not shown) [Compound 72, N-(5-Chloro-pyridin-2-yl)-3-cyclohexyl-2-(7-ethanesulfonyl-4-oxo-4H-quinazolin-3-yl)-propionamide] | 0.501 to 0.794 |
| COC(=O)c1ccc(NC(=O)C(CC2CCCCC2)n2cnc3cc(S(=O)(=O)CC4CC4)ccc3c2=O)nc1 (stereo not shown) [Compound 90, 6-[3-Cyclohexyl-2-(7-cyclopropylmethanesulfonyl-4-oxo-4H-quinazolin-3-yl)-propionylamino]-nicotinic acid methyl ester] | 0.501 to 0.794 |
| CCS(=O)(=O)c1ccc2c(=O)n(C(CC3CCCCC3)C(=O)Nc3ccc(C(N)=O)cn3)cnc2c1 (stereo not shown) [Compound 81, 6-[3-Cyclohexyl-2-(7-ethanesulfonyl-4-oxo-4H-quinazolin-3-yl)-propionylamino]-nicotinamide] | ≤ 0.398 |

More lines, now with the values ahead:

| EC50 [µM] | SMILES |
| --- | --- |
| ≤ 0.398 | CNC(=O)c1ccc2c(=O)n(C(CC3CCCCC3)C(=O)Nc3ncc(Cl)s3)cnc2c1 (stereo not shown) [Compound 175, 3-(1-(5-chlorothiazol-2-ylamino)-3-cyclohexyl-1-oxopropan-2-yl)-N-methyl-4-oxo-3,4-dihydroquinazoline-7-carboxamide] |
| 1 to 1.58 | COC(=O)c1ccc(NC(=O)C(CC2CCCCC2)n2cnc3c(C)cc(Cl)cc3c2=O)nc1 (stereo not shown) [Compound 207, methyl 6-(2-(6-chloro-8-methyl-4-oxoquinazolin-3(4H)-yl)-3-cyclohexylpropanamido)nicotinate] |
| 0.501 to 0.794 | CN1CCC(CNC(=O)c2ccc3c(=O)n(C(CC4CCCCC4)C(=O)Nc4ncc(Cl)s4)c(=O)[nH]c3c2)CC1 (stereo not shown) [Compound 179, 3-(1-(5-chlorothiazol-2-ylamino)-3-cyclohexyl-1-oxopropan-2-yl)-N-((1-methylpiperidin-4-yl)methyl)-2,4-dioxo-1,2,3,4-tetrahydroquinazoline-7-carboxamide] |
| 1 to 1.58 | CN1CCC(CNC(=O)c2ccc3c(=O)n(C(CC4CCCCC4)C(=O)Nc4ncc(Cl)s4)cnc3c2)CC1 (stereo not shown) [Compound 178, 3-(1-(5-chlorothiazol-2-ylamino)-3-cyclohexyl-1-oxopropan-2-yl)-N-((1-methylpiperidin-4-yl)methyl)-4-oxo-3,4-dihydroquinazoline-7-carboxamide] |
| ≥ 2 | CS(=O)(=O)c1ccc2c(=O)n(C(CC3CCCCC3)C(=O)Nc3ccc(C#N)cn3)cnc2c1 (stereo not shown) [Compound 166, N-(5-cyanopyridin-2-yl)-3-cyclohexyl-2-(7-(methylsulfonyl)-4-oxoquinazolin-3(4H)-yl)propanamide] |
| ≥ 2 | O=C(Nc1ncc(Cl)s1)C(CC1CCCCC1)n1cnc2c(C(F)(F)F)cccc2c1=O (stereo not shown) [Compound 142, N-(5-chlorothiazol-2-yl)-3-cyclohexyl-2-(4-oxo-8-(trifluoromethyl)-quinazolin-3(4H)-yl)propanamide] |
| ≤ 0.398 | O=C(NC1CC1)c1ccc2c(=O)n(C(CC3CCCCC3)C(=O)Nc3ncc(Cl)s3)cnc2c1 (stereo not shown) [Compound 170, 3-(1-(5-chlorothiazol-2-ylamino)-3-cyclohexyl-1-oxopropan-2-yl)-N-cyclopropyl-4-oxo-3,4-dihydroquinazoline-7-carboxamide] |
| 0.501 to 0.794 | CS(=O)(=O)c1ccc2c(=O)n(C(CC3CCCCC3)C(=O)Nc3ccc(C(N)=O)cn3)cnc2c1 (stereo not shown) [Compound 158, 6-(3-cyclohexyl-2-(7-(methylsulfonyl)-4-oxoquinazolin-3(4H)-yl)propanamido)nicotinamide] |
| ≥ 2 | O=C(NC1CC1)c1ccc2c(=O)n(C(CC3CCOCC3)C(=O)Nc3ncc(Cl)s3)c(=O)[nH]c2c1 (stereo not shown) [Compound 181, 3-(1-(5-chlorothiazol-2-ylamino)-1-oxo-3-(tetrahydro-2H-pyran-4-yl)propan-2-yl)-N-cyclopropyl-2,4-dioxo-1,2,3,4-tetrahydroquinazoline-7-carboxamide] |
| 0.501 to 0.794 | O=C(NC1CC1)c1ccc2c(=O)n(C(CC3CCCCC3)C(=O)Nc3ccc(F)cn3)cnc2c1 (stereo not shown) [Compound 118, 3-(3-Cyclohexyl-1-(5-fluoropyridin-2-ylamino)-1-oxopropan-2-yl)-N-cyclopropyl-4-oxo-3,4-dihydroquinazoline-7-carboxamide] |
| 1 to 1.58 | COC(=O)c1ccc(NC(=O)C(CC2CCCCC2)n2cnc3c(C(F)(F)F)cccc3c2=O)nc1 (stereo not shown) [Compound 209, methyl 6-(3-cyclohexyl-2-(4-oxo-8-(trifluoromethyl)quinazolin-3(4H)-yl)propanamido)nicotinate] |
| ≥ 2 | O=C(Nc1nccs1)C(CC1CCCCC1)n1cnc2c(Cl)cccc2c1=O (stereo not shown) [Compound 139, 2-(8-chloro-4-oxoquinazolin-3(4H)-yl)-3-cyclohexyl-N-(thiazol-2-yl)propanamide] |
| 1 to 1.58 | O=C(Nc1ccc(Cl)cn1)C(CC1CCCCC1)n1cnc2ccc(F)cc2c1=O (stereo not shown) [Compound 160, N-(5-chloropyridin-2-yl)-3-cyclohexyl-2-(6-fluoro-4-oxoquinazolin-3(4H)-yl)propanamide] |
